Results: ChEMBL document CHEMBL1201862, “PubChem BioAssay data set” (2004)
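Compound exposure: 48 hours, 5 concentrations, 96-well plates. GI50: concentration for 50% inhibition of growth.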 Active and inactive are the calls of the source. Cut-off read from the data, not from the text of the source: active = GI50 up to about 1.1 µM and inactive = higher.

Assays:
Assay in all cases: NCI tumour cell line growth inhibition, 48 h
EKVX = test system: EKVX
SF-295 = test system: SF-295
SK-MEL-28 = test system: SK-MEL-28
K562 = test system: K562
MOLT-4 = test system: MOLT-4
HCC 2998 = test system: HCC 2998
COLO 205 = test system: COLO 205
IGROV-1 = test system: IGROV-1
UO-31 = test system: UO-31
NCI-H522 = test system: NCI-H522
HCT-15 = test system: HCT-15
KM12 = test system: KM12
RXF 631 = test system: RXF 631
SF-539 = test system: SF-539
DLD-1 = test system: DLD-1
TK-10 = test system: TK-10
SNB-78 = test system: SNB-78
UACC-62 = test system: UACC-62
HOP-18 = test system: HOP-18
HT-29 = test system: HT-29
SW-620 = test system: SW-620
Malme-3M = test system: Malme-3M
OVCAR-5 = test system: OVCAR-5
HL-60 = test system: HL-60
RPMI-8226 = test system: RPMI-8226
UACC-257 = test system: UACC-257
KM-20L2 = test system: KM-20L2
SK-MEL-5 = test system: SK-MEL-5
OVCAR-8 = test system: OVCAR-8
SK-MEL-2 = test system: SK-MEL-2
ACHN = test system: ACHN
A549 = test system: A549
M14 = test system: M14
LXFL 529 = test system: LXFL 529
DMS-114 = test system: DMS-114
HOP-92 = test system: HOP-92
RXF 393 = test system: RXF 393
SK-OV-3 = test system: SK-OV-3
OVCAR-3 = test system: OVCAR-3
A498 = test system: A498
SN12C = test system: SN12C
HCT-116 = test system: HCT-116
NCI-H460 = test system: NCI-H460
SR = test system: SR
M19-MEL = test system: M19-MEL
XF498 = test system: XF498
LOX IMVI = test system: LOX IMVI
CCRF-CEM = test system: CCRF-CEM
U-251 = test system: U-251
NCI-H23 = test system: NCI-H23
SNB-75 = test system: SNB-75
SNB-19 = test system: SNB-19
DMS-273 = test system: DMS-273
CAKI-1 = test system: CAKI-1
OVCAR-4 = test system: OVCAR-4
NCI-H226 = test system: NCI-H226
SF-268 = test system: SF-268
786-0 = test system: 786-0

Structure (SMILES): CCCNC(/C=C/[Si](C)(C)C)CO.CCCNCC(O)/C=C/[Si](C)(C)C (stereo not drawn)
- GI50 (EKVX): > 100 µM (inactive)
- GI50 (SF-295): > 100 µM (inactive)
- GI50 (SK-MEL-28): > 100 µM (inactive)
- GI50 (K562): > 100 µM (inactive)
- GI50 (MOLT-4): 10 µM (inactive)
- GI50 (HCC 2998): > 100 µM (inactive)
- GI50 (COLO 205): 98.2 µM (inactive)
- GI50 (IGROV-1): > 100 µM (inactive)
- GI50 (UO-31): > 100 µM (inactive)
- GI50 (NCI-H522): > 100 µM (inactive)
- GI50 (HCT-15): > 100 µM
- GI50 (KM12): > 100 µM (inactive)
- GI50 (RXF 631): > 100 µM (inactive)
- GI50 (SF-539): > 100 µM (inactive)
- GI50 (DLD-1): > 100 µM (inactive)
- GI50 (TK-10): > 100 µM (inactive)
- GI50 (SNB-78): > 100 µM (inactive)
- GI50 (UACC-62): > 100 µM (inactive)
- GI50 (HOP-18): > 100 µM (inactive)
- GI50 (HT-29): > 100 µM (inactive)
- GI50 (SW-620): > 100 µM (inactive)
- GI50 (Malme-3M): > 100 µM (inactive)
- GI50 (OVCAR-5): > 100 µM (inactive)
- GI50 (HL-60): > 100 µM (inactive)
- GI50 (RPMI-8226): 90.8 µM (inactive)
- GI50 (UACC-257): > 100 µM (inactive)
- GI50 (KM-20L2): > 100 µM (inactive)
- GI50 (SK-MEL-5): > 100 µM (inactive)
- GI50 (OVCAR-8): > 100 µM (inactive)
- GI50 (SK-MEL-2): > 100 µM (inactive)
- GI50 (ACHN): > 100 µM (inactive)
- GI50 (A549): > 100 µM (inactive)
- GI50 (M14): > 100 µM (inactive)
- GI50 (LXFL 529): > 100 µM (inactive)
- GI50 (DMS-114): > 100 µM (inactive)
- GI50 (HOP-92): 36.9 µM (inactive)
- GI50 (RXF 393): 95.7 µM (inactive)
- GI50 (SK-OV-3): > 100 µM (inactive)
- GI50 (OVCAR-3): > 100 µM (inactive)
- GI50 (A498): > 100 µM (inactive)
- GI50 (SN12C): > 100 µM (inactive)
- GI50 (HCT-116): > 100 µM (inactive)
- GI50 (NCI-H460): > 100 µM (inactive)
- GI50 (SR): > 100 µM (inactive)
- GI50 (M19-MEL): > 100 µM (inactive)
- GI50 (XF498): 22 µM (inactive)
- GI50 (LOX IMVI): > 100 µM (inactive)
- GI50 (CCRF-CEM): > 100 µM (inactive)
- GI50 (U-251): > 100 µM (inactive)
- GI50 (NCI-H23): > 100 µM (inactive)
- GI50 (SNB-75): 40.6 µM (inactive)
- GI50 (SNB-19): > 100 µM (inactive)

Structure (SMILES): CC1C[C@]2(C[C@@H](C)C(=O)O2)OC2CC3(C)C4CCC5C(C)(C)OC(=O)CC[C@@]56C[C@@]46CC[C@]3(C)C12 (stereo partly drawn)
- GI50 (EKVX): > 100 µM (inactive)
- GI50 (DMS-273): > 100 µM (inactive)
- GI50 (SF-295): > 100 µM (inactive)
- GI50 (SK-MEL-28): > 100 µM (inactive)
- GI50 (K562): 64.9 µM (inactive)
- GI50 (MOLT-4): > 100 µM (inactive)
- GI50 (HCC 2998): > 100 µM (inactive)
- GI50 (COLO 205): > 100 µM (inactive)
- GI50 (IGROV-1): > 100 µM (inactive)
- GI50 (HCT-15): > 100 µM
- GI50 (KM12): > 100 µM (inactive)
- GI50 (RXF 631): > 100 µM (inactive)
- GI50 (SF-539): > 100 µM (inactive)
- GI50 (DLD-1): > 100 µM (inactive)
- GI50 (TK-10): > 100 µM (inactive)
- GI50 (SNB-78): > 100 µM (inactive)
- GI50 (HOP-18): > 100 µM (inactive)
- GI50 (HT-29): > 100 µM (inactive)
- GI50 (SW-620): > 100 µM (inactive)
- GI50 (Malme-3M): > 100 µM (inactive)
- GI50 (OVCAR-5): > 100 µM (inactive)
- GI50 (CAKI-1): > 100 µM (inactive)
- GI50 (OVCAR-4): > 100 µM (inactive)
- GI50 (HL-60): 69.8 µM (inactive)
- GI50 (RPMI-8226): > 100 µM (inactive)
- GI50 (UACC-257): > 100 µM (inactive)
- GI50 (NCI-H226): > 100 µM (inactive)
- GI50 (SK-MEL-5): > 100 µM (inactive)
- GI50 (OVCAR-8): > 100 µM (inactive)
- GI50 (SK-MEL-2): > 100 µM (inactive)
- GI50 (ACHN): > 100 µM (inactive)
- GI50 (A549): > 100 µM (inactive)
- GI50 (M14): > 100 µM (inactive)
- GI50 (LXFL 529): > 100 µM (inactive)
- GI50 (DMS-114): > 100 µM (inactive)
- GI50 (HOP-92): > 100 µM (inactive)
- GI50 (RXF 393): > 100 µM (inactive)
- GI50 (A498): > 100 µM (inactive)
- GI50 (SN12C): > 100 µM (inactive)
- GI50 (HCT-116): > 100 µM (inactive)
- GI50 (NCI-H460): > 100 µM (inactive)
- GI50 (SR): > 100 µM (inactive)
- GI50 (XF498): > 100 µM (inactive)
- GI50 (LOX IMVI): > 100 µM (inactive)
- GI50 (SF-268): > 100 µM (inactive)
- GI50 (CCRF-CEM): > 100 µM (inactive)
- GI50 (U-251): > 100 µM (inactive)
- GI50 (NCI-H23): > 100 µM (inactive)
- GI50 (SNB-75): > 100 µM (inactive)
- GI50 (SNB-19): > 100 µM (inactive)

Structure (SMILES): c1ccc2c(c1)c1ccccc1c1n[se]nc21
- GI50 (EKVX): 87.9 µM (inactive)
- GI50 (DMS-273): > 100 µM (inactive)
- GI50 (SF-295): 43.9 µM (inactive)
- GI50 (SK-MEL-28): > 100 µM (inactive)
- GI50 (K562): > 100 µM (inactive)
- GI50 (MOLT-4): > 100 µM (inactive)
- GI50 (COLO 205): > 100 µM (inactive)
- GI50 (IGROV-1): 36.1 µM (inactive)
- GI50 (UO-31): 33.1 µM (inactive)
- GI50 (NCI-H522): > 100 µM (inactive)
- GI50 (HCT-15): > 100 µM
- GI50 (KM12): > 100 µM (inactive)
- GI50 (RXF 631): 89.7 µM (inactive)
- GI50 (SF-539): 34.6 µM (inactive)
- GI50 (DLD-1): > 100 µM (inactive)
- GI50 (TK-10): 48.4 µM (inactive)
- GI50 (SNB-78): > 100 µM (inactive)
- GI50 (UACC-62): > 100 µM (inactive)
- GI50 (HOP-18): < 0.01 µM (active)
- GI50 (HT-29): 57 µM (inactive)
- GI50 (SW-620): > 100 µM (inactive)
- GI50 (Malme-3M): > 100 µM (inactive)
- GI50 (OVCAR-5): 35.6 µM (inactive)
- GI50 (CAKI-1): 36.5 µM (inactive)
- GI50 (OVCAR-4): > 100 µM (inactive)
- GI50 (HL-60): > 100 µM (inactive)
- GI50 (RPMI-8226): > 100 µM (inactive)
- GI50 (UACC-257): > 100 µM (inactive)
- GI50 (786-0): 39 µM (inactive)
- GI50 (KM-20L2): > 100 µM (inactive)
- GI50 (SK-MEL-5): > 100 µM (inactive)
- GI50 (OVCAR-8): 50.2 µM (inactive)
- GI50 (SK-MEL-2): > 100 µM (inactive)
- GI50 (ACHN): 31.8 µM (inactive)
- GI50 (A549): 52.6 µM (inactive)
- GI50 (M14): > 100 µM (inactive)
- GI50 (LXFL 529): 21.8 µM (inactive)
- GI50 (DMS-114): > 100 µM (inactive)
- GI50 (RXF 393): 68.5 µM (inactive)
- GI50 (SK-OV-3): 26 µM (inactive)
- GI50 (A498): 19.5 µM (inactive)
- GI50 (SN12C): > 100 µM (inactive)
- GI50 (NCI-H460): 75.3 µM (inactive)
- GI50 (XF498): 31.5 µM (inactive)
- GI50 (LOX IMVI): > 100 µM (inactive)
- GI50 (SF-268): > 100 µM (inactive)
- GI50 (CCRF-CEM): > 100 µM (inactive)
- GI50 (U-251): > 100 µM (inactive)
- GI50 (NCI-H23): > 100 µM (inactive)
- GI50 (SNB-75): 28.1 µM (inactive)
- GI50 (SNB-19): 35.6 µM (inactive)
